Literature values, collected in patent publication US20210292807A1, “METHOD FOR TESTING ANTIMICROBIAL SUSCEPTIBILITY” (priority 2017, published 2021).
Like-named read-outs stand apart in the source and are kept apart here.

Test system: Klebsiella isolates
Settings: cited from earlier work

## C[C@@H](O)[C@H]1C(=O)N2C(C(=O)O)=C(S[C@@H]3CN[C@H](C(=O)N(C)C)C3)[C@H](C)[C@H]12 [meropenem]
48 Klebsiella isolates
  MIC, high-level resistance end of the collection's susceptibility phenotypes: > 256 µg/mL
  MIC, highly-susceptible end of the collection's susceptibility phenotypes: < 1.006 µg/mL
Isolate 194, Sweden, VIM
  Referring Lab's MIC: ≥32 mg/L
Isolate 374, Sweden, VIM
  Referring Lab's MIC: >32 mg/L
Isolate 3354, Australia
  Referring Lab's MIC: ≤≤0.25 mg/L
Isolate 10924, Sweden, KPC
  Referring Lab's MIC: 4 mg/L
Isolate 18397, Australia
  Referring Lab's MIC: ≤≤0.25 mg/L
Isolate 43288, Australia
  Referring Lab's MIC: ≤≤0.25 mg/L
Isolate 43292, Australia
  Referring Lab's MIC: ≤≤0.25 mg/L
Isolate 43358, Australia
  Referring Lab's MIC: ≤≤0.25 mg/L
Isolate 43854, Australia
  Referring Lab's MIC: ≤≤0.25 mg/L
Isolate 44271, Australia
  Referring Lab's MIC: ≤≤0.25 mg/L
Isolate 51575, Sweden, ESBL
  Referring Lab's MIC: 0.064 mg/L
Isolate 70708, Sweden, KPC
  Referring Lab's MIC: 16 mg/L
Isolate 71076, Sweden, KPC
  Referring Lab's MIC: ≥32 mg/L
Isolate 200822, Sweden, KPC
  Referring Lab's MIC: 8 mg/L
Isolate 270902, England
  Referring Lab's MIC: 0.125 mg/L
Isolate 500638, Sweden, pAmpC
  Referring Lab's MIC: ≤0.25 mg/L
Isolate 515870, Sweden, ESBL
  Referring Lab's MIC: 0.125 mg/L
Isolate 2440606, England
  Referring Lab's MIC: ≤0.06 mg/L
Isolate 2880622, England
  Referring Lab's MIC: ≤0.06 mg/L
Isolate 2880654, England, KPC
  Referring Lab's MIC: 4 mg/L
Isolate 2890369, England
  Referring Lab's MIC: 1 mg/L
Isolate 2980639, England
  Referring Lab's MIC: 1 mg/L
Isolate 3000770, England, NDM-1
  Referring Lab's MIC: >32 mg/L
Isolate 3040820, England, pAmpC
  Referring Lab's MIC: ≤0.06 mg/L
Isolate 3080800, England, KPC
  Referring Lab's MIC: >32 mg/L
Isolate ATCC 700603, USA
  Referring Lab's MIC: ≤≤0.25 mg/L
Isolate ATCC BAA 1705, USA, KPC
  Referring Lab's MIC: 8 mg/L
Isolate ATCC BAA 1706, USA
  Referring Lab's MIC: ≤≤0.25 mg/L
Isolate K1, Australia, OXA-181
  Referring Lab's MIC: 64 mg/L
Isolate K2, Australia, OXA-181
  Referring Lab's MIC: 64 mg/L
Isolate K8, Australia, NDM-1
  Referring Lab's MIC: >256 mg/L
Isolate K14, Australia, KPC
  Referring Lab's MIC: 256 mg/L
Isolate K16, Australia, IMP - 4
  Referring Lab's MIC: 2 mg/L
Isolate K23, Australia, IMP - 4
  Referring Lab's MIC: 0.5 mg/L
Isolate KS1, Sri Lanka, OXA-181
  Referring Lab's MIC: 1 mg/L
Isolate KS2, Sri Lanka, OXA-181
  Referring Lab's MIC: ≥32 mg/L
Isolate KS17, Sri Lanka, OXA-181
  Referring Lab's MIC: ≥32 mg/L
Isolate KS23, Sri Lanka, OXA-181
  Referring Lab's MIC: ≥32 mg/L
Isolate N17, Sweden, NDM-1
  Referring Lab's MIC: ≥32 mg/L
